Data taken from patent US20090311695A1, “Method” (priority 2008, published 2009).
Entries after “also recorded” stand apart in the source; their conditions may differ. Like-named read-outs stand apart in the source and are kept apart here.

How the values were obtained:
[1] = test system: translation readthrough of PTC in exon 12 of BMPR2; assay type: cell-based; settings: for population of dual-fluorescence cells (FACS): 293 cells transfected with pTN142; for ratio of DsRed-Express and GFP production (efficiency of readthrough), plate readers: fluorescence monochrome and filter plate readers, data not shown
Source text: (§1) (A) An outline of the single cell-based translation readthrough assay. The principle of the reporter system is similar to that mentioned in FIG. 2 with the exception that it contains a translation termination signal in the exon 12. In the event of translation termination at the internal PTC, a DsRed-Express protein will be generated whilst readthrough will produce a fusion dual-fluorescence protein (DsRed Express and GFP). Thus the ratio of two fluorescence intensities determines the efficiency of readthrough. […] (C) Cell expressing fluorescence proteins were analyzed with FACS. Cell transfected with pTN139 generated the highest population of dual-fluorescence cells (FIG. 5Civ), whilst pTN142 produced no or few dual-fluorescence cells. […] GFP (FIG. 5Cii) and DsRed-Express (FIG. 5Ciii) proteins expressing cells were used as fluorescence positive control, whilst untransfected cells (FIG. 5Ci) were used as negative control. (FIG. 5D) The outline of the enzymatic reporter was published elsewhere (Kollmus et al., 1996, Nasim et al., 2000). In brief, translation termination in the internal stop signal generates β-gal protein. In the event of readthrough, a β-gal-luciferase fusion protein will be produced. The ratio of these two proteins was used as the efficiency of readthrough event. For this purpose, two independent constructs were used in our experiment. Construct H8 (pBPLUGA; Kollmus et al., 1996) contains a 17 bp DNA fragment containing an in-frame stop signal. H8A construct (Nasim et al., 2000) is similar to H8 with the exception that it contains a 91 bp DNA fragment.
Single-cell based dual-fluorescence splicing assay constructs were generated by replacing exon 9 of plasmid pTN136 with exon 12 of BMPR2 gene using PCR mutagenesis (14). The resultant splicing unit was cloned into Xho I and Bam HI sites of DsRed Express-GFP vector (Siskoglu and Nasim, unpublished data) and designated as pTN139. Further plasmids pTN140, pTN141, pTN142 and pTN143 bearing mutations in exon 12 at position c.2292insA, c.2386delG, c.2620G>T and c.2695C>T, respectively were generated. A double intron splicing unit was constructed by fusing an additional splicing unit of HC9 (15) at the 3′end of the Ad-Exon 12 unit of pTN136. The splicing unit of HC9 comprises the last 17 nucleotides of the non-muscle exon (NM) of human TPM3 gene together with the following 80-nucleotide intron, which was joined to a fragment of human dystrophin gene containing the last 260 nucleotides of intron 11 followed by the 100 nucleotides of exon 12. The double-intron splicing unit was cloned into EcoRI and KpnI sites of DsRed-Express-GFP vector and designated as pTN153. Plasmid pTN155 is a derivative of pTN153 and harbours a mutation in exon 12 at position c.2386delG.
Gene Transfer, cell culture, enzymatic assay, fluorescence microscopy and fluorescence activated cell sorting (FACS) were carried as described elsewhere (11), (15), (17). Amount of plasmid DNA transfected into HEK293 cell line varied from (from 30 ng to 1 μg) assay to assay.
In addition to PAH, there are also more than 1800 genetic disorders caused by nonsense mutation. Two approaches are currently available to overcome nonsense-associated genetic diseases. […] The aim of other approach is to suppress pre-mature termination; in other words to promote translation readthrough. As the dual-fluorescence assay was successfully utilized to characterize the PTC, we next wished to investigate whether the system can be used to identify factors that promote translation readthrough. To achieve this, we introduced a nonsense mutation into the exon 12 of the BMPR2 gene in such a way that it incorporates a PTC (FIG. 5A). In the event of readthrough, a fusion dual-fluorescence protein (DsRed Express and GFP) will be produced, whilst translation termination generates only DsRed-Express protein. Thus the ratio of two fluorescence intensities determines the efficiency of readthrough. […]

[2] = test system: translation readthrough of in-frame stop signal; assay: enzyme-based dual-reporter (β-gal-luciferase) readthrough assay, constructs H8 and H8A; assay type: cell-based
Source text: as §1, with “(FIG. 5D) The outline of the enzymatic reporter was published elsewhere (Kollmus et al., 1996, Nasim et al., 2000). In brief, translation termination in the internal stop signal generates β-gal protein.” left out, “For this purpose, two independent constructs were used in our experiment. Construct H8 (pBPLUGA; Kollmus et al., 1996) contains a 17 bp DNA fragment containing an in-frame stop signal. H8A construct (Nasim et al., 2000) is similar to H8 with the exception that it contains a 91 bp DNA fragment.” left out
To further validate the efficiency determined by fluorescence assays, we employed an enzyme-based reporter assay. […] In the event of translation termination, β-gal protein is generated, whilst readthrough produces a β-gal and luciferase fusion protein. […]

[3] = test system: nonsense codon read-through; settings: literature values; cited from earlier work
[4] = test system: nonsense mediated RNA decay; assay: β-galactosidase reporter based NMD assay (gal-luc ratio) with PTC bearing double intron splicing unit; assay type: cell-based; settings: reporter with c.2386delG or c.2292insA PTC, after treatment with translation/NMD inhibitor
Source text: (A) The test system for determining nonsense mediated RNA decay in mammalian cells based on the reporter gene encoding β-galactosidase, which was fused in-frame with the PTC (c.2386delG, c.2292insA) bearing recombinant double intron splicing unit (FIG. 4A). Plasmids bearing c.2292insA (pTN147) and c.2386delG (pTN148) mutations were transfected into HE 293 cells and grown in the presence or absence of NMD inhibitors including puromycin and cycloheximide. The treatments increased the gal-luc ratio of the reporter constructs between 5 and 20 fold (FIG. 4B) compared with untreated control. Compared with cells transfected with the reporter alone, the gal-luc ratio increased between 3 and 6 fold when hUpf1 RNA was knock down by RNAi (FIG. 4C).
Constructs for determining NMD were generated by fusing the double-intron splicing unit of pTN155 at the end of β-galactosidase reporter gene. The double-intron splicing intron was cloned in two steps into pBPLUGA (16). First the splicing unit of HC9 as described above was PCR amplified and cloned into KpnI and BamHI sites of pBPLUGA. The splicing unit of pTN136 was then cloned into SalI/XhoI and BamHI sites of the newly constructed plasmid and designated as pTN148. […]
Gene Transfer, cell culture, enzymatic assay, fluorescence microscopy and fluorescence activated cell sorting (FACS) were carried as described elsewhere (11), (15), (17). […]

[5] = test system: translation readthrough of in-frame PTC; assay: swapped GFP-DsRedExpress dual-fluorescence readthrough assay, plate reader; assay type: cell-based; settings: HEK293 cells, medium with 0.1% fetal bovine serum, 3-5 days, BMG Labtech plate reader
Source text: An outline of the dual-fluorescence reporter. The underlying principle of the reporter is similar to that mentioned above with the exception that the DsRed-express gene is located downstream of the GFP reporter (FIG. 7A). Following transfection the reporter harbouring an in-frame PTC produced only GFP protein (FIG. 7B). The reporter produced both GFP and DsRedExpress proteins following the exchange of the PTC to a sense codon.
A step-by-step outline of the translation readthrough assay (FIG. 8A).
A potential complication of the fluorescence approach was that of an autofluorescence which might interfere with the GFP fluorescence. To address this potential limitation, another set of vector was constructed. In this set of vectors the GFP and DsRed-Express reporters were swapped in such that the GFP is expressed regardless of translation readthrough, whilst the readthrough activates the expression of DsRed-Express protein (FIG. 7A). […] The reporter produced both GFP and DsRed-Express dual-fluorescences once the PTC codon was changed to a sense codon.
We next wished to determine the ratio of DsRed-Express and GFP production, which represents the efficiency of readthrough (FIG. 8A). […] The growth medium was discarded, cells were washed with PBS and the fluorescence intensities were determined using a fluorescence (BMG Labtech) plate reader.

Row | Compound | population of dual-fluorescence cells (FACS) [1] | ratio of DsRed-Express and GFP production (efficiency of readthrough), plate readers [1] | ratio of gal-luc activity (readthrough efficiency) [2] | increase in the reporter protein [4] | also measured
1 | CN[C@@H]1[C@@H](O)[C@@H](O[C@@H]2[C@@H](O)[C@H](O[C@H]3O[C@H]([C@@H](C)O)[C@@H](O)[C@H](O)[C@H]3N)[C@@H](N)C[C@H]2N)OC[C@]1(C)O [G418 sulphate] | markedly increased | promoted translation readthrough | promoted readthrough efficiency; also recorded: markedly increased |  | population of dual-fluorescence cells (FACS) ([1]; listed as G418): significantly high population of dual-fluorescence cells; dual-fluorescence of cells ([1]; 293 cells, PTC construct, 5 days after treatment): generated dual-fluorescence
2 | O=C(O)c1cccc(-c2noc(-c3ccccc3F)n2)c1 [PTC124] |  |  |  |  | read-through efficiencies [3]: 2-10%
3 | C[C@@H]1C[C@@H]([C@H](O)CC2CC(=O)NC(=O)C2)C(=O)[C@@H](C)C1 [cycloheximide] |  |  |  | 5 fold | 
4 | COc1ccc(C[C@H](N)C(=O)N[C@H]2[C@@H](O)[C@H](n3cnc4c(N(C)C)ncnc43)O[C@@H]2CO)cc1 [puromycin] |  |  |  | 20 fold | 
5 | gentamicin | significantly high population of dual-fluorescence cells; also recorded: markedly increased | promoted translation readthrough | promoted readthrough efficiency |  | ratio of GFP and DsRedExpress fluorescence intensities (efficiency of readthrough) [5]: promoted the ratio of GFP and DsRedExpress fluorescence intensities; also recorded: promoted translation readthrough
